Common to all, as to type: cell-based
For one test, the system named is MiaPaca. As to the kind of experiment: MTS cell proliferation assay, MiaPaca. To be noted: Table 1C. As for the experimental part:
MTS assays. Antiproliferative effects of anticancer drugs are tested by the CellTiter 96 AQueous assay (Promega, WI), which is a colorimetric assay for determining the number of viable cells. (See, e.g., Wang, L., et al., Methods Cell Sci (1996) 18:249-255). Generally, cells (2,000 to 5,000 cells/well) are seeded on 96 well flat bottom plates (Corning, NY) in 100 μl of culture medium without any anticancer drug on day 0, and the culture medium is exchanged for that contained anticancer drugs at various concentrations on day 1. After incubation for 3 days under normal growth conditions (on day 4), the monolayers are washed once in PBS, and the medium is switched to 100 μl of PBS in each of the 96 well plate. After mixing MTS and PMS at the ratio of 20:1, 20 μl of MTS/PMS solution is added to each of the 96 well plate and incubated for 4 hours in a humidified atmosphere of 5% CO2 at 37° C. The absorbance is read at 490 nm using FLUOstar Galaxy 96 well plate reader (BMG Labtechnologies, Germany).
Background: Formazan colour is commonly taken as a measure of viable cells.

The subject of another test is HCT-116. As to the kind of experiment: TumorCell MeanTimeSurvival (Alamar Blue Stain), HCT-116. Conditions: Homo sapiens. In general terms: Resazurin is reduced to fluorescent resorufin, in cell work by metabolically active cells.
The test system of the next test is PC3. In words: TumorCell MeanTimeSurvival (Alamar Blue Stain), PC3. To be noted: Homo sapiens, PC-3.
The subject of another test is Hela. As to the kind of experiment: TumorCell MeanTimeSurvival (Alamar Blue Stain), Hela. Conditions: Homo sapiens.
Where [1] appears, read: Homo sapiens, MIA PaCa-2, M CELL MiaPaca.

The values below come from patent US7816406B2, “Quinolone analogs” (Cylene Pharmaceuticals, Inc., priority 2004, dated 2010).

In general, IC50 refers to the midpoint of a concentration-inhibition curve. Turning to `O=C(NCCN1CCCC1)c1c(=O)c2ccc(N3CCN(c4ncccn4)CC3)nc2n2c1sc1ccc(Cl)cc12` [drawing 286], the IC50 with MiaPaca (setting [1]) turned out to be 2500 nM. Consider `O=C(NCCN1CCCC1)c1c(=O)c2cc(F)c(SCCc3cnccn3)cc2n2c1sc1ccccc12` [drawing 472], for which the half-maximal inhibitory concentration (IC50) in the test on HCT-116 is 570 nM; in the test on PC3, 520 nM; in the test with Hela, 2700 nM. On the same counts, the results for `CN1CCCC1CCNC(=O)c1c(=O)c2cc(F)c(SCCc3cnccn3)cc2n2c1sc1ccccc12` (stereo not shown) [drawing 471] are 1100 nM, 2700 nM and 2800 nM. The compound `CN1CCCC1CCNC(=O)c1c(=O)c2ccc(N3CCNCC3)nc2n2c1sc1ccccc12` (stereo not shown) [drawing 358] showed a half-inhibitory concentration (IC50) in the test on MiaPaca (setting [1]) of 10 nM. On the same count and under the same terms, then `CC(C)Nc1ncc2c(=O)c(C(=O)NCCN3CCCC3)c3sc4ccccc4n3c2n1` [drawing 330], with 110 nM.

In turn, `O=C(NCCN1CCCC1)c1c(=O)c2c(N3CCCC3)ccnc2n2c1sc1ccccc12` [drawing 145] came in with an IC50 in the test on MiaPaca (setting [1]) of 2300 nM. Consider `O=C1CN(c2ccnc3c2c(=O)c(C(=O)NCCN2CCOCC2)c2sc4ccccc4n23)CCN1` [drawing 234], for which half-maximal inhibition in the test on MiaPaca (setting [1]) (IC50) was put at 6600 nM. In the test with MiaPaca (setting [1]), `CC(=O)NC1CCN(c2ccnc3c2c(=O)c(C(=O)NCCN2CCCC2)c2sc4ccccc4n23)C1` (stereo not shown) [drawing 147] yielded an IC50 of 700 nM. Regarding `O=C(NCCN1CCCC1)c1c(=O)c2cnc(N3CCCC3)nc2n2c1sc1ccc(Cl)cc12` [drawing 213], the IC50 in the test on MiaPaca (M CELL MiaPaca) was 300 nM.
